≈ marks a conversion by molar mass, not a printed value. Positions of bridges follow the written chain, without caps; N, C: chain ends. Non-standard residues stand in square brackets, D forms with d. Residues, ends and D or L forms follow the SMILES beside them. Groups on a side chain read outwards from the residue. Chains are numbered I, II in the order given. *: point of attachment. X3 = CC(C)C[C@H](NC(=O)CCCCCN)C(=O)NCCCC[C@H](NC(=O)[C@H](CC(C)C)NC(=O)CCCCCN)C(=O)*; Ahx = NCCCCCC(=O)O
Tests used:
[1] = test system: E. coli W3110; settings: for MIC at pH 5.0, E. coli W3110: W3110, pH 5; for MIC at pH 7.4, E. coli W3110: W3110, pH 7.4; for MIC at pH 8.0, E. coli W3110: W3110, pH 8
[2] = test system: A. baumannii ATCC 19606; settings: for MIC at pH 5.0, A. baumannii ATCC 19606: ATCC 19606, pH 5; for MIC at pH 7.4, A. baumannii ATCC 19606: ATCC 19606, pH 7.4; for MIC at pH 8.0, A. baumannii ATCC 19606: ATCC 19606, pH 8
[3] = test system: P. aeruginosa PAO1; settings: for MIC at pH 5.0, P. aeruginosa PAO1: PAO1, pH 5; for MIC at pH 7.4, P. aeruginosa PAO1: PAO1, pH 7.4; for MIC at pH 8.0, P. aeruginosa PAO1: PAO1, pH 8
[4] = test system: K. pneumoniae NCTC 418; settings: for MIC at pH 5.0, K. pneumoniae NCTC 418: NCTC 418, pH 5; for MIC at pH 7.4, K. pneumoniae NCTC 418: NCTC 418, pH 7.4; for MIC at pH 8.0, K. pneumoniae NCTC 418: NCTC 418, pH 8
[5] = test system: S aureus COL (methicillin-resistant Staphylococcus aureus); settings: for MIC at pH 5.0, S aureus COL: COL (methicillin-resistant, pH 5); for MIC at pH 7.4, S aureus COL: COL (methicillin-resistant, pH 7.4); for MIC at pH 8.0, S aureus COL: COL (methicillin-resistant, pH 8)
[6] = test system: S. maltophilia; settings: pH 7.4
[7] = test system: P. aeruginosa PA14; settings: PA14, pH 7.4
[8] = test system: P. aeruginosa ZEM-1A; settings: ZEM-1A, pH 7.4
[9] = test system: E. cloacae; settings: pH 7.4
[10] = test system: K. pneumoniae OXA-48; settings: OXA-48, pH 7.4
[11] = test system: P. aeruginosa ZEM9A; settings: ZEM9A, pH 7.4
[12] = test system: B. cenocepacia; settings: pH 7.4
[13] = test system: S. aureus Newman; settings: Newman, pH 7.4
[14] = test system: HEK293 cell line; format: cell-based; settings: 48 h
Method: HEK 293 cell line were cultured and maintained in DMEM (Dulbeccos modified Eagle
medium, Sigma Aldrich) supplemented with 10% FBS (Sigma Aldrich) and 1%
penicillin/streptomycin. Cells were incubated in a humidified incubator at 37°C in the presence
HEK 293 cell were seeded into 96 well plates at the density of 2 × 10^3 cells/well and incubated
in DMEM containing 10% FBS for 10-14 hours at 37°C in the presence of 5% CO2. The next
day, stock solution of compounds were prepared at concentration of 2 mg/mL in DMEM
containing 10% FBS. 1/2 or 1/3 serial dilution of the peptide dendrimers from 2 mg/mL or 200
µg/mL were performed in DMEM containing 10% FBS. The medium was removed from cell
culture and replaced with the compounds at different concentration after washing with PBS.
The cells were incubated in DMEM containing 10% FBS at 37°C in the presence of 5% CO 2.
Negative control was untreated cell culture without compounds and blank control was wells
without cell but only medium. After 48 hours, a final concentration of 10% AlamarBlue®
(Thermo Fisher Scientific, Reinach, CH) was added to each well . The cells were incubated for
3-5 hours at 37°C with 5% CO 2. The fluorescence was then measured on a Tecan Infinite
M1000 Pro plate reader at λex = 560 nm and λem = 590 nm. The value was normalized
according to the untreated cells.

Structure (SMILES)	MIC at pH 5.0, E. coli W3110 [1] [μg/mL]	MIC at pH 7.4, E. coli W3110 [1] [μg/mL]	MIC at pH 8.0, E. coli W3110 [1] [μg/mL]	MIC at pH 5.0, A. baumannii ATCC 19606 [2] [μg/mL]	MIC at pH 7.4, A. baumannii ATCC 19606 [2] [μg/mL]	MIC at pH 8.0, A. baumannii ATCC 19606 [2] [μg/mL]	MIC at pH 5.0, P. aeruginosa PAO1 [3] [μg/mL]	MIC at pH 7.4, P. aeruginosa PAO1 [3] [μg/mL]	MIC at pH 8.0, P. aeruginosa PAO1 [3] [μg/mL]	MIC at pH 5.0, K. pneumoniae NCTC 418 [4] [μg/mL]	MIC at pH 7.4, K. pneumoniae NCTC 418 [4] [μg/mL]	MIC at pH 8.0, K. pneumoniae NCTC 418 [4] [μg/mL]	MIC at pH 5.0, S aureus COL [5] [μg/mL]	MIC at pH 7.4, S aureus COL [5] [μg/mL]	MIC at pH 8.0, S aureus COL [5] [μg/mL]	MIC, S. maltophilia [6] [µg/mL]	MIC, P. aeruginosa PA14 [7] [µg/mL]	MIC, P. aeruginosa ZEM-1A [8] [µg/mL]	MIC, E. cloacae [9] [µg/mL]	MIC, K. pneumoniae OXA-48 [10] [µg/mL]	also measured
CC(C)C[C@@H](NC(=O)[C@H](N)CCCCN)C(=O)NCCCC[C@@H](NC(=O)[C@@H](CC(C)C)NC(=O)[C@H](N)CCCCN)C(=O)N[C@H](CC(C)C)C(=O)NCCCC[C@@H](NC(=O)[C@@H](CC(C)C)NC(=O)[C@@H](CCCCNC(=O)[C@@H](CC(C)C)NC(=O)[C@H](N)CCCCN)NC(=O)[C@@H](CC(C)C)NC(=O)[C@H](N)CCCCN)C(=O)N[C@H](CCCCN)C(=O)N[C@H](CC(C)C)C(=O)N[C@H](CC(C)C)C(=O)NCCCC[C@@H](NC(=O)[C@@H](CC(C)C)NC(=O)[C@@H](CC(C)C)NC(=O)[C@@H](CCCCN)NC(=O)[C@@H](CCCCNC(=O)[C@@H](CC(C)C)NC(=O)[C@@H](CCCCNC(=O)[C@@H](CC(C)C)NC(=O)[C@H](N)CCCCN)NC(=O)[C@@H](CC(C)C)NC(=O)[C@H](N)CCCCN)NC(=O)[C@@H](CC(C)C)NC(=O)[C@@H](CCCCNC(=O)[C@@H](CC(C)C)NC(=O)[C@H](N)CCCCN)NC(=O)[C@@H](CC(C)C)NC(=O)[C@H](N)CCCCN)C(=O)N[C@H](CC(C)C)C(=O)N[C@H](CCCCN)C(=O)N[C@H](CCCCN)C(N)=O [D-X22] (HELM PEPTIDE1{[dK].[dL].[dK].[dL].[dK].[dK].[dL].[dL].[dK].[dL].[dK].[dK].[am]}|PEPTIDE2{[CC(C)C[C@@H](NC(=O)[C@H](N)CCCCN)C(=O)NCCCC[C@@H](NC(=O)[C@@H](CC(C)C)NC(=O)[C@H](N)CCCCN)C(=O)[*:2]].[dL]}|PEPTIDE3{[dK].[dL]}|PEPTIDE4{[dK].[dL].[dK].[dL].[dK].[dK].[dL].[dL]}|PEPTIDE5{[CC(C)C[C@@H](NC(=O)[C@H](N)CCCCN)C(=O)NCCCC[C@@H](NC(=O)[C@@H](CC(C)C)NC(=O)[C@H](N)CCCCN)C(=O)[*:2]].[dL]}|PEPTIDE6{[dK].[dL]}$PEPTIDE1,PEPTIDE2,5:R3-2:R2|PEPTIDE1,PEPTIDE3,3:R3-2:R2|PEPTIDE4,PEPTIDE5,5:R3-2:R2|PEPTIDE4,PEPTIDE6,3:R3-2:R2|PEPTIDE1,PEPTIDE4,9:R3-8:R2$$$V2.0)	8	4	4	16	8	4	16	4	4	> 64	> 64	16	> 64	> 64	4	4 (≈ 0.914 µM)	4 (≈ 0.914 µM)	4 (≈ 0.914 µM)	8 (≈ 1.83 µM)	4 (≈ 0.914 µM)	MIC, P. aeruginosa ZEM9A [11]: 8 µg/mL (≈ 1.83 µM); MIC, B. cenocepacia [12]: >64 µg/mL; MIC, S. aureus Newman [13]: 64 µg/mL (≈ 14.6 µM)
CC(C)C[C@H](NC(=O)[C@H](CC(C)C)NC(=O)[C@H](CCCCN)NC(=O)[C@H](CCCCNC(=O)[C@H](CC(C)C)NC(=O)[C@H](CCCCNC(=O)[C@H](CC(C)C)NC(=O)[C@@H](N)CCCCN)NC(=O)[C@H](CC(C)C)NC(=O)[C@@H](N)CCCCN)NC(=O)[C@H](CC(C)C)NC(=O)[C@H](CCCCNC(=O)[C@H](CC(C)C)NC(=O)[C@@H](N)CCCCN)NC(=O)[C@H](CC(C)C)NC(=O)[C@@H](N)CCCCN)C(=O)NCCCC[C@H](NC(=O)[C@H](CC(C)C)NC(=O)[C@H](CC(C)C)NC(=O)[C@H](CCCCN)NC(=O)[C@H](CCCCNC(=O)[C@H](CC(C)C)NC(=O)[C@H](CCCCNC(=O)[C@H](CC(C)C)NC(=O)[C@@H](N)CCCCN)NC(=O)[C@H](CC(C)C)NC(=O)[C@@H](N)CCCCN)NC(=O)[C@H](CC(C)C)NC(=O)[C@H](CCCCNC(=O)[C@H](CC(C)C)NC(=O)[C@@H](N)CCCCN)NC(=O)[C@H](CC(C)C)NC(=O)[C@@H](N)CCCCN)C(=O)N[C@@H](CC(C)C)C(=O)N[C@@H](CCCCN)C(=O)N[C@@H](CCCCN)C(N)=O [L-X22] (HELM PEPTIDE1{K.L.K.L.K.K.L.L.K.L.K.K.[am]}|PEPTIDE2{[CC(C)C[C@H](NC(=O)[C@@H](N)CCCCN)C(=O)NCCCC[C@H](NC(=O)[C@H](CC(C)C)NC(=O)[C@@H](N)CCCCN)C(=O)[*:2]].L}|PEPTIDE3{K.L}|PEPTIDE4{K.L.K.L.K.K.L.L}|PEPTIDE5{[CC(C)C[C@H](NC(=O)[C@@H](N)CCCCN)C(=O)NCCCC[C@H](NC(=O)[C@H](CC(C)C)NC(=O)[C@@H](N)CCCCN)C(=O)[*:2]].L}|PEPTIDE6{K.L}$PEPTIDE1,PEPTIDE2,5:R3-2:R2|PEPTIDE1,PEPTIDE3,3:R3-2:R2|PEPTIDE4,PEPTIDE5,5:R3-2:R2|PEPTIDE4,PEPTIDE6,3:R3-2:R2|PEPTIDE1,PEPTIDE4,9:R3-8:R2$$$V2.0)	8	4	2	8	4	2	8	4	4	> 64	> 64	8	> 64	> 64	8	4 (≈ 0.914 µM)	4 (≈ 0.914 µM)	4 (≈ 0.914 µM)	4 (≈ 0.914 µM)	8 (≈ 1.83 µM)	MIC, P. aeruginosa ZEM9A [11]: 32 µg/mL (≈ 7.31 µM); MIC, B. cenocepacia [12]: >64 µg/mL; MIC, S. aureus Newman [13]: >64 µg/mL
CC(C)C[C@H](NC(=O)CCCCCN)C(=O)NCCCC[C@H](NC(=O)[C@H](CC(C)C)NC(=O)CCCCCN)C(=O)N[C@@H](CC(C)C)C(=O)NCCCC[C@H](NC(=O)[C@H](CC(C)C)NC(=O)[C@H](CCCCNC(=O)[C@H](CC(C)C)NC(=O)CCCCCN)NC(=O)[C@H](CC(C)C)NC(=O)CCCCCN)C(=O)N[C@@H](CCCCN)C(=O)N[C@@H](CC(C)C)C(=O)N[C@@H](CC(C)C)C(=O)NCCCC[C@H](NC(=O)[C@H](CC(C)C)NC(=O)[C@H](CC(C)C)NC(=O)[C@H](CCCCN)NC(=O)[C@H](CCCCNC(=O)[C@H](CC(C)C)NC(=O)[C@H](CCCCNC(=O)[C@H](CC(C)C)NC(=O)CCCCCN)NC(=O)[C@H](CC(C)C)NC(=O)CCCCCN)NC(=O)[C@H](CC(C)C)NC(=O)[C@H](CCCCNC(=O)[C@H](CC(C)C)NC(=O)CCCCCN)NC(=O)[C@H](CC(C)C)NC(=O)CCCCCN)C(=O)N[C@@H](CC(C)C)C(=O)N[C@@H](CCCCN)C(=O)N[C@@H](CCCCN)C(N)=O [L-aX22] (I: H-[Ahx]LK([Leu-Ahx])LK([Leu-X3])KLLKLKK-NH2 / II: H-[Ahx]LK([Leu-Ahx])LK([Leu-X3])KLL; amide I:9-II:C)	2	4	4	2	4	4	16	8	16	64	8	8	64	16	4	–	–	–	–	–	IC50 HEK293 [14]: 24 ± 3 µg/mL (≈ 5.64 µM)

Source: article PMC9780108, “An intrinsically disordered antimicrobial peptide dendrimer from stereorandomized virtual screening” (Cell Reports. Physical Science, 2022)
